Test results reported in patent US7862842B2, “Use of cationic preservative in food products” (priority 2001, dated 2011).

Assays:
[1] = system: Listeria monocytogenes ATCC 7644; assay: minimum inhibitory concentration of LAE; assay type: cell-based; settings: Gram + Bacteria
[2] = system: Citrobacter freundii ATCC 22636; assay: minimum inhibitory concentration of LAE; assay type: cell-based; settings: Gram − Bacteria
toxicological studies = assay type: in vivo; settings: animals and humans
Aerobe Bacteria [3] = assay: microbiological evolution in custard; assay type: cell-based; settings: LAE 100 ppm, 25° C.
Description: (§1) The determination of the microbiological population is carried out according to the ISO standards.
(§2) The samples are treated by dilution in buffer peptone with the appropriate neutralising agent of the preservative. The culture media used for counting the microorganisms are: Soya triptone agar (32-35° C., 48 hours) for the determination of mesophilic bacteria; Sabouraud agar with chloramfenicol (25° C., 3-5 days) for fungi and yeast; Violet red bile glucose agar (32-35° C., 24 hours) for enterobacteria; Soya triptone agar (17° C., 5 days) for psychrotrophic bacteria.
(§3) The sample LAE was added to at a concentration of 100 ppm and its microbiological evolution at 25° C. was compared against a control.

Anaerobe Bacteria = assay: microbiological evolution in custard; assay type: cell-based; settings: LAE 100 ppm, 25° C.
Description: as §1, §2, §3

[4] = system: Aureobasidium pullulans ATCC 9348; assay: minimum inhibitory concentration of LAE; assay type: cell-based; settings: Fungi
[5] = system: Enterobacter aerogenes CECT 689; assay: minimum inhibitory concentration of LAE; assay type: cell-based; settings: Gram − Bacteria
Enterobacteria = assay: microbiological evolution in ketchup; assay type: cell-based; settings: LAE 100 ppm, 25° C.
Description: as §1, §2, §3

Mould & yeast [6] = assay: microbiological evolution in ketchup; assay type: cell-based; settings: LAE 100 ppm, 25° C.
Description: as §1, §2, §3

Aerobe Bacteria [7] = assay: microbiological evolution in ketchup; assay type: cell-based; settings: LAE 100 ppm, 25° C.
Description: as §1, §2, §3

[8] = system: Staphylococcus aureus ATCC 6538; assay: minimum inhibitory concentration of LAE; assay type: cell-based; settings: Gram + Bacteria
[9] = system: Micrococcus luteus ATCC 9631; assay: minimum inhibitory concentration of LAE; assay type: cell-based; settings: Gram + Bacteria
Psychro. Bacteria = assay: evolution of bacteria in a chicken product; assay type: cell-based; settings: LAE 150 ppm, 10° C.
Description: as §1, §2
(§4) The sample LAE was added to at a concentration of 150 ppm and the evolution of aerobe and psychrotrophic bacteria at 10° C. was compared against a control.

Aerobe Bacteria [10] = assay: evolution of bacteria in a chicken product; assay type: cell-based; settings: LAE 150 ppm, 10° C.
Description: as §1, §2, §4

[11] = system: Arthrobacter oxydans ATCC 8010; assay: minimum inhibitory concentration of LAE; assay type: cell-based; settings: Gram + Bacteria
[12] = system: Bordetella bronchiseptica ATCC 4617; assay: minimum inhibitory concentration of LAE; assay type: cell-based; settings: Gram − Bacteria
[13] = system: Alcaligenes faecalis ATCC 8750; assay: minimum inhibitory concentration of LAE; assay type: cell-based; settings: Gram − Bacteria
[14] = system: Lactobacillus delbrueckii ssp lactis CECT 372; assay: minimum inhibitory concentration of LAE; assay type: cell-based; settings: Gram + Bacteria
metabolism in rats = assay type: in vivo
[15] = system: Mycobacterium phlei ATCC 41423; assay: minimum inhibitory concentration of LAE; assay type: cell-based; settings: listed under Gram − Bacteria
[16] = system: Clostridium perfringens ATCC 77454; assay type: cell-based; settings: Gram + Bacteria
[17] = system: Candida albicans ATCC 10231; assay: minimum inhibitory concentration of LAE; assay type: cell-based; settings: Yeast
Mould & yeast [18] = assay: microbiological evolution in fairy cakes; assay type: cell-based; settings: LAE 80 ppm, 25° C.
Description: as §1, §2
(§5) The sample LAE was added to at a concentration of 80 ppm and its microbiological evolution at 25° C. was compared against a control.

Aerobe Bacteria [19] = assay: microbiological evolution in fairy cakes; assay type: cell-based; settings: LAE 80 ppm, 25° C.
Description: as §1, §2, §5

[20] = system: Penicillium funiculosum CECT 2914; assay: minimum inhibitory concentration of LAE; assay type: cell-based; settings: Fungi

## CCCCCCCCCCCC(=O)N[C@@H](CCCN=C(N)N)C(=O)OCC.Cl [LAE, ethyl ester of the lauramide of the arginine monohydrochloride]
[1]
  M.I.C.: 10 ppm
[2]
  M.I.C.: 64 ppm
Toxicological studies
  toxicity: completely harmless to animals and humans
Aerobe Bacteria [3]; 0 days
  Aerobe Bacteria count: <10 cfu/g
Aerobe Bacteria [3]; 5 days
  Aerobe Bacteria count: 1.1 · 10^3 cfu/g
Anaerobe Bacteria; 0 days
  Anaerobe Bacteria count: <10 cfu/g
Anaerobe Bacteria; 5 days
  Anaerobe Bacteria count: 4.1 · 10^2 cfu/g
[4]
  M.I.C.: 16 ppm
[5]
  M.I.C.: 32 ppm
Enterobacteria; 0 days
  Enterobacteria count: <10 cfu/g
Enterobacteria; 14 days
  Enterobacteria count: <10 cfu/g
Mould & yeast [6]; 0 days
  Mould & yeast count: <10 cfu/g
Mould & yeast [6]; 14 days
  Mould & yeast count: 1.4 · 10^1 cfu/g
Aerobe Bacteria [7]; 0 days
  Aerobe Bacteria count: <10 cfu/g
Aerobe Bacteria [7]; 14 days
  Aerobe Bacteria count: 2.2 · 10^3 cfu/g
[8]
  M.I.C.: 32 ppm
[9]
  M.I.C.: 128 ppm
Psychro. Bacteria; 0 days
  Psychro. Bacteria count: 3.0 · 10^4 cfu/g
Psychro. Bacteria; 14 days
  Psychro. Bacteria count: 7.1 · 10^4 cfu/g
Psychro. Bacteria; 43 days
  Psychro. Bacteria count: 6.8 · 10^4 cfu/g
Aerobe Bacteria [10]; 0 days
  Aerobe Bacteria count: 1.2 · 10^5 cfu/g
Aerobe Bacteria [10]; 14 days
  Aerobe Bacteria count: 4.2 · 10^5 cfu/g
Aerobe Bacteria [10]; 43 days
  Aerobe Bacteria count: 6.1 · 10^5 cfu/g
[11]
  M.I.C.: 64 ppm
[12]
  M.I.C.: 128 ppm
[13]
  M.I.C.: 64 ppm
[14]
  M.I.C.: 16 ppm
Metabolism in rats
  absorption and metabolism: fast absorption and metabolisation into naturally-occurring amino acids and the fatty acid lauric acid
[15]
  M.I.C.: 2 ppm
[16]
  M.I.C.: 16 ppm
[17]
  M.I.C.: 16 ppm
Mould & yeast [18]; 0 months
  Mould & yeast count: <10 cfu/g
Mould & yeast [18]; 3 months
  Mould & yeast count: <10 cfu/g
Aerobe Bacteria [19]; 0 months
  Aerobe Bacteria count: <10 cfu/g
Aerobe Bacteria [19]; 3 months
  Aerobe Bacteria count: 1.1 · 10^2 cfu/g
[20]
  M.I.C.: 16 ppm
